Experimental data reported in PubChem BioAssay (NCI).
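In this assay, cells in 96-well plates receive the compound at five concentrations for 48 hours. Endpoints are linearly interpolated between the surrounding concentrations. GI50: concentration for 50% inhibition of growth. TGI is the concentration that stops growth completely.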

Key:
Test in all cases: DTP human tumour cell line panel, 48 h
[1] = test system: IGROV1 ovarian
[2] = test system: MOLT-4 leukemia
[3] = test system: UACC-257 melanoma
[4] = test system: CCRF-CEM leukemia
[5] = test system: HCT-116 colon
[6] = test system: NCI-H522 lung
[7] = test system: OVCAR-5 ovarian
[8] = test system: T-47D breast
[9] = test system: MDA-MB-231 breast
[10] = test system: NCI/ADR-RES ovarian

| SMILES | TGI [1] [µM] | TGI [2] [µM] | TGI [3] [µM] | TGI [4] [µM] | TGI [5] [µM] | TGI [6] [µM] | TGI [7] [µM] | GI50 [1] [µM] | GI50 [3] [µM] | GI50 [4] [µM] | GI50 [5] [µM] | GI50 [6] [µM] | GI50 [7] [µM] | TGI [8] [µM] | TGI [9] [µM] | GI50 [2] [µM] | TGI [10] [µM] | GI50 [9] [µM] | GI50 [10] [µM] | GI50 [8] [µM] |
| --- | --- | --- | --- | --- | --- | --- | --- | --- | --- | --- | --- | --- | --- | --- | --- | --- | --- | --- | --- | --- |
| ClC/C=C/COC1CCCCO1 (stereo not given) | > 100 | 97 | > 100 | > 100 | > 100 | 8.85 | > 100 | – | – | – | – | – | – | – | – | – | – | – | – | – |
| O=C1C=CC=C/C1=C1/SC(c2ccccc2)=C(O)N1c1ccccc1 | > 100 | – | > 100 | – | > 100 | > 100 | > 100 | – | – | – | – | – | – | – | – | – | – | – | – | – |
| C[CH2][Ge]([CH2]C)([CH2]C)[O]C(=O)C(OC(C)=O)c1ccccc1 (stereo not given) | > 100 | – | > 100 | > 100 | > 100 | > 100 | > 100 | > 100 | > 100 | 24.1 | > 100 | > 100 | > 100 | – | – | – | – | – | – | – |
| CN(C)c1ccc2oc(=O)c3ccccc3c2c1 | > 100 | > 100 | > 100 | > 100 | > 100 | > 100 | > 100 | – | – | – | – | – | – | > 100 | 82.9 | – | – | – | – | – |
| CC1/C(=N\O)CC(c2ccccc2)N(C)C1c1ccccc1 (stereo not given) | > 100 | > 100 | > 100 | > 100 | > 100 | > 100 | > 100 | – | – | – | – | – | – | – | – | – | – | – | – | – |
| O=C([CH-]C(=O)c1ccccc1)c1ccccc1.[CH-]1CCCCC1.[CH-]1CCCCC1.[CH-]1CCCCC1.[Sn+4] | 33.4 | 7.47 | 19.2 | – | 19.9 | 5.26 | 39.7 | 11.8 | 4.29 | – | 6.3 | 2.03 | 22.8 | – | – | 2.41 | – | – | – | – |
| O=C1CC(c2ccccc2)=Nc2ccccc2N1 | > 100 | > 100 | > 100 | > 100 | > 100 | > 100 | > 100 | – | – | – | – | – | – | – | – | – | – | – | – | – |
| CCOP(=O)(OCC)C1CCCOC1=O (stereo not given) | > 100 | > 100 | > 100 | > 100 | > 100 | – | > 100 | – | – | – | – | – | – | – | – | – | – | – | – | – |
| CCOC(=O)/C(=C/c1ccc(C(=O)OC)cc1)N(CC)CC | > 100 | > 100 | > 100 | 93.7 | > 100 | > 100 | > 100 | – | – | – | – | – | – | – | – | – | – | – | – | – |
| O=S(=O)(O)c1cc(O)c(N=Nc2ccc(O)cc2O)c2ccccc12 | > 100 | > 100 | > 100 | > 100 | > 100 | 95.4 | > 100 | – | – | – | – | – | – | – | > 100 | – | > 100 | – | – | – |
| Cc1cccc(C)c1NC(=O)C1=NC(=S)NC(c2ccccc2)C1c1nc2ccccc2s1 (stereo not given) | > 100 | > 100 | > 100 | > 100 | > 100 | > 100 | – | – | – | – | – | – | – | – | – | – | – | – | – | – |
| O=c1[nH]c2ccccc2nc1/C=C(\O)c1ccccc1O | > 100 | > 100 | > 100 | > 100 | > 100 | > 100 | > 100 | – | – | – | – | – | – | – | – | – | – | – | – | – |
| C[N+](C)(C)CC(=O)N/N=C(/C(=O)Nc1ccc(Br)cc1)C1C(=O)NC(=O)NC1=O | > 100 | > 100 | > 100 | > 100 | > 100 | > 100 | > 100 | – | – | – | – | – | – | – | – | – | – | – | – | – |
| O=C(CC1OC(O)C(Cl)=C1Cl)c1cccnc1 (stereo not given) | > 100 | > 100 | > 100 | > 100 | > 54.8 | > 100 | > 100 | – | – | – | – | – | – | – | – | – | – | – | – | – |
| CN(C)CCNC(=O)c1cccc2cc3c(Cl)cccc3nc12 | 6.96 | 0.556 | 3.99 | – | 2.97 | > 100 | 6.68 | – | – | – | – | – | – | – | – | – | – | – | – | – |
| COCN1COCN=C1NC#N | > 100 | > 100 | > 100 | – | > 100 | > 100 | > 100 | – | – | – | – | – | – | – | – | – | – | – | – | – |
| CC1=C(C(=O)Nc2ccccc2)C(c2cccc3ccccc23)C(C(=O)Nc2ccccc2)=C(C)N1 | 56.9 | 43.8 | 39.2 | 59.6 | 28.7 | 35.6 | 44.6 | – | – | – | – | – | – | – | – | – | – | – | – | – |
| CN(C)C(=N/O)/C(=N\O)N(C)C | > 100 | > 100 | > 100 | > 100 | > 100 | > 100 | > 100 | – | – | – | – | – | – | – | – | – | – | – | – | – |
| O=C(/C=C/c1ccccc1F)c1ccc(Cl)c(Cl)c1 | > 72.6 | 77 | > 100 | 67.8 | 32.1 | 61.2 | > 100 | – | – | – | – | – | – | – | – | – | – | – | – | – |

| SMILES | TGI [1] [µM] | TGI [2] [µM] | TGI [3] [µM] | TGI [4] [µM] | TGI [5] [µM] | TGI [6] [µM] | TGI [7] [µM] | GI50 [1] [µM] | GI50 [3] [µM] | GI50 [4] [µM] | GI50 [5] [µM] | GI50 [6] [µM] | GI50 [7] [µM] | TGI [8] [µM] | TGI [9] [µM] | GI50 [2] [µM] | TGI [10] [µM] | GI50 [9] [µM] | GI50 [10] [µM] | GI50 [8] [µM] |
| --- | --- | --- | --- | --- | --- | --- | --- | --- | --- | --- | --- | --- | --- | --- | --- | --- | --- | --- | --- | --- |
| O=C1CC(c2cccc(F)c2)Nc2cc3c(cc21)OCO3 (stereo not given) | – | < 0.01 | > 100 | > 100 | > 100 | 0.0602 | > 100 | – | < 0.01 | < 0.01 | < 0.01 | – | 13.4 | > 100 | > 100 | – | – | 0.04 | – | – |
| CNC(=O)c1c(NC(=O)c2ccc(C(C)(C)C)cc2)sc2c(CN(C)C)c(O)ccc12 | – | 3.73 | 4.09 | 4.68 | 2.43 | – | 3.68 | – | 1.95 | 1.2 | 0.936 | – | 1.85 | – | 3.67 | 1.28 | – | 1.81 | – | – |
| NC(=O)c1cc([N+](=O)[O-])c(Cl)c([N+](=O)[O-])c1Cl | 7.73 | – | 2.38 | 2.38 | 0.582 | 0.319 | 4.59 | 0.625 | 1.13 | 0.4 | 0.228 | 0.162 | 2.3 | – | 3.39 | – | 4.93 | 1.79 | 2.01 | – |
| CC(=O)c1c2c(cc3c1CC1(C3)Cc3cc4c(c(C(C)=O)c3C1)CCC4)CCC2 | > 100 | > 100 | > 100 | > 100 | > 100 | > 100 | > 100 | – | – | – | – | – | – | – | – | – | – | – | – | – |
| C[C@]12CC[C@H]3[C@@H](CC=C4C[C@@H](N5CCCC5)CC[C@@]43C)[C@@H]1C/C(=C\c1cccc(OCCN3CCOCC3)c1)[C@@H]2O | > 100 | – | 6.65 | – | 5.13 | 29.7 | > 100 | 12.8 | 2.55 | – | 1.66 | 8.21 | 31 | > 100 | 5.37 | – | – | 2.24 | – | 2.67 |
| N#C/C(=C/c1ccc2c(c1)OCO2)C(=O)c1ccccc1 | > 100 | > 100 | > 100 | > 100 | > 100 | > 100 | > 100 | – | – | – | – | – | – | – | – | – | – | – | – | – |
| N/C(=N\N=C\c1ccc(C(F)(F)F)cc1)NO | 33.2 | – | > 100 | 95.5 | > 100 | 50.4 | – | – | – | – | – | – | – | – | – | – | – | – | – | – |
| CCc1cccc(C)c1NC(=O)C(=O)CC(=O)c1ccc(Cl)s1 | > 100 | > 100 | > 100 | > 100 | > 100 | – | – | – | – | – | – | – | – | – | – | – | – | – | – | – |
| COC12C=C/C(=C(/C(=O)OCc3ccccn3)C(=O)CCCCCCCCC3(OC)C=C/C(=C(/C(=O)OCc4ccccn4)C(=O)CCCCCCCC1)O3)O2 | 3.73 | > 100 | 4.27 | – | 0.47 | 1.71 | 5.62 | 0.421 | 1.05 | – | 0.223 | 0.345 | 0.538 | 6.24 | > 100 | 0.301 | – | 0.485 | – | 0.588 |
| COC(=O)N/N=C(\C)c1c(O)cc(C)oc1=O | > 100 | > 100 | > 100 | > 100 | > 100 | – | – | – | – | – | – | – | – | – | – | – | – | – | – | – |
| c1ccc(C2OC3(CCC[C@H]4C[C@H]43)O[C@H]2c2ccccc2)cc1 (stereo not given in full) | > 100 | 63.9 | 77.7 | 49.9 | > 100 | 67.1 | > 100 | – | – | – | – | – | – | – | – | – | – | – | – | – |
| CC(=O)[O-].Cn1ccnc1CNCc1nccn1C.[Cu+2].[O-][Cl+3]([O-])([O-])[O-] | > 100 | > 100 | – | > 100 | > 100 | > 100 | – | > 100 | – | > 100 | > 100 | > 100 | – | – | – | > 100 | – | – | – | – |
| CC1=C(/C=C/C(C)=C/C2CC(N(C)C)=CC(=O)O2)C(C)(C)CCC1 (stereo not given) | 29 | 19.9 | 24.9 | 22.3 | 43 | – | 24.1 | – | – | – | – | – | – | – | – | – | – | – | – | – |
| O=C1C(c2ccc(Br)cc2)=[N+]([O-])c2ccccc21 | 33.8 | 26.6 | 24.7 | 22.6 | 27.5 | 11.8 | 35.5 | – | – | – | – | – | – | – | – | – | – | – | – | – |
| Cc1cc2c(C)n(Cc3ccccc3Cl)nc2c(C(=O)O)c1C | > 100 | > 100 | > 100 | > 100 | > 100 | – | > 100 | – | – | – | – | – | – | – | – | – | – | – | – | – |
| COc1ccc2c(c1)c(-c1nc(-c3c[nH]c4ccncc34)cs1)cn2C | 3.54 | – | 3.09 | 3.64 | 3.22 | 3.25 | 3.06 | 1.91 | 1.68 | 1.83 | 1.69 | 1.65 | 1.64 | – | 2.95 | – | 3.38 | 1.45 | 1.76 | – |
| O=[N+]([O-])C(/C=N/Nc1ccccc1)/C=N/Nc1ccccc1 | > 100 | > 100 | > 100 | > 100 | > 100 | > 100 | > 100 | – | – | – | – | – | – | – | – | – | – | – | – | – |
| O=C1/C=C(/c2ccc(O)cc2)[C@@H](O)Cc2ccc(O)cc2O1 | > 100 | – | > 100 | – | > 100 | > 100 | > 100 | – | – | – | – | – | – | – | – | – | – | – | – | – |
